From ChEMBL document CHEMBL4823296, “NMR-Guided Design of Potent and Selective EphA4 Agonistic Ligands” (J Med Chem, 2021)
Non-standard residues stand in square brackets, D forms with d. Residues, ends and D or L forms follow the SMILES beside them. *: point of attachment. Phe(4-(2-MeO-Ph)) = COc1ccccc1-c1ccc(C[C@H](N)C(=O)O)cc1; Cyclohexanoyl(1S,3S-3-NH2) = N[C@H]1CCC[C@H](C(=O)*)C1; Phe(4-guanidino) = N=C(N)Nc1ccc(C[C@H](N)C(=O)O)cc1; Trp(6-OMe) = COc1ccc2c(C[C@H](N)C(=O)O)c[nH]c2c1; Trp(5-OH) = N[C@@H](Cc1c[nH]c2ccc(O)cc12)C(=O)O; NHPh(4-CH2-morpholino) = c1cc(N*)ccc1CN1CCOCC1; NH(4-morpholinophenyl) = c1cc(N2CCOCC2)ccc1N*; Trp(7-aza) = N[C@@H](Cc1c[nH]c2ncccc12)C(=O)O; Bip = N[C@@H](Cc1ccc(-c2ccccc2)cc1)C(=O)O; 1Nal = N[C@@H](Cc1cccc2ccccc12)C(=O)O; 2Nal = N[C@@H](Cc1ccc2ccccc2c1)C(=O)O; d(hArg) = N=C(N)NCCCC[C@@H](N)C(=O)O; hArg = N=C(N)NCCCC[C@H](N)C(=O)O; X4 = COc1cc(CN*)cc(OC)c1; NHPh = c1ccc(N*)cc1; GABA = NCCCC(=O)O; X1 = Oc1ccccc1CN*; X2 = Oc1ccccc1N*; X3 = Oc1cccnc1N*

What was measured:
Ephrin type-A receptor 4 [1] = biological target: T1, Ephrin type-A receptor 4 (Homo sapiens, UniProt P54764)
T1 sequence (P54764 whole entry, the tested form may be a part): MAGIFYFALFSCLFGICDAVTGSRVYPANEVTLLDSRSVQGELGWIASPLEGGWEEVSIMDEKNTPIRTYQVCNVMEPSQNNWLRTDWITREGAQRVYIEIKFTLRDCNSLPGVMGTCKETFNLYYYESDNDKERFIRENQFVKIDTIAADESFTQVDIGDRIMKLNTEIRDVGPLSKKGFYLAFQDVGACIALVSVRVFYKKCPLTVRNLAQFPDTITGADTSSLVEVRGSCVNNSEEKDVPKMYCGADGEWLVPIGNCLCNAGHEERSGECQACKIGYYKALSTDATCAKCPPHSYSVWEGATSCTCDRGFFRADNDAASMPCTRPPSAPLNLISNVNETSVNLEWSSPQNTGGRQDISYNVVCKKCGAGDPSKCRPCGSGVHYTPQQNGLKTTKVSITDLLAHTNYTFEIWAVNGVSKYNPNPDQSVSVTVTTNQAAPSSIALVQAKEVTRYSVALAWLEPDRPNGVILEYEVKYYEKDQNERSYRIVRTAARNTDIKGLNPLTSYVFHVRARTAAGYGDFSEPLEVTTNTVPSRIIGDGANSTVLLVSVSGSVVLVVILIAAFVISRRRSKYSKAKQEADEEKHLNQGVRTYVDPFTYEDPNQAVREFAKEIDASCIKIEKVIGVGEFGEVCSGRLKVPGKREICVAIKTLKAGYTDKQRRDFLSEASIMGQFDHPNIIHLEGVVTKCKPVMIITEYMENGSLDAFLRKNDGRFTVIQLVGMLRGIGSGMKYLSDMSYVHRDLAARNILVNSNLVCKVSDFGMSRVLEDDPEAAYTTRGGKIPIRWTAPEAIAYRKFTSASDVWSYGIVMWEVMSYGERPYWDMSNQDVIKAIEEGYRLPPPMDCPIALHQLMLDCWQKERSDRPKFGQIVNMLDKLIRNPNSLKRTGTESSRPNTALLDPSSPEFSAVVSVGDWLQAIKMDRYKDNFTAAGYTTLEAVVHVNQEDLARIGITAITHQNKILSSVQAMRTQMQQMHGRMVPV
Description: Binding affinity to N-terminal His tagged EphA4 LBD (unknown origin) (29 to 209 residues) expressed in Rosetta-Gami B(DE3) cells assessed as change in enthalpy by isothermal titration calorimetry

Ephrin type-A receptor 4 [2] = biological target: T1, Ephrin type-A receptor 4; assay: Binding affinity to N-terminal His tagged EphA4 LBD (unknown origin) (29 to 209 residues) expressed in Rosetta-Gami B(DE3) cells by isothermal titration calorimetry
Ephrin type-A receptor 4 [3] = biological target: T1, Ephrin type-A receptor 4; remark: listed apart in the source
Description: Binding affinity to N-terminal His tagged EphA4 LBD (unknown origin) (29 to 209 residues) expressed in Rosetta-Gami B(DE3) cells assessed as change in entropy by isothermal titration calorimetry

Ephrin type-A receptor 2 = Ephrin type-A receptor 2 (Homo sapiens, UniProt P29317); assay: Binding affinity to N-terminal His tagged EphA2 LBD (27 to 200 residues) (unknown origin) expressed in Origami (DE3) cells by isothermal titration calorimetry
Ephrin type-A receptor 2, sequence (P29317 whole entry, the tested form may be a part): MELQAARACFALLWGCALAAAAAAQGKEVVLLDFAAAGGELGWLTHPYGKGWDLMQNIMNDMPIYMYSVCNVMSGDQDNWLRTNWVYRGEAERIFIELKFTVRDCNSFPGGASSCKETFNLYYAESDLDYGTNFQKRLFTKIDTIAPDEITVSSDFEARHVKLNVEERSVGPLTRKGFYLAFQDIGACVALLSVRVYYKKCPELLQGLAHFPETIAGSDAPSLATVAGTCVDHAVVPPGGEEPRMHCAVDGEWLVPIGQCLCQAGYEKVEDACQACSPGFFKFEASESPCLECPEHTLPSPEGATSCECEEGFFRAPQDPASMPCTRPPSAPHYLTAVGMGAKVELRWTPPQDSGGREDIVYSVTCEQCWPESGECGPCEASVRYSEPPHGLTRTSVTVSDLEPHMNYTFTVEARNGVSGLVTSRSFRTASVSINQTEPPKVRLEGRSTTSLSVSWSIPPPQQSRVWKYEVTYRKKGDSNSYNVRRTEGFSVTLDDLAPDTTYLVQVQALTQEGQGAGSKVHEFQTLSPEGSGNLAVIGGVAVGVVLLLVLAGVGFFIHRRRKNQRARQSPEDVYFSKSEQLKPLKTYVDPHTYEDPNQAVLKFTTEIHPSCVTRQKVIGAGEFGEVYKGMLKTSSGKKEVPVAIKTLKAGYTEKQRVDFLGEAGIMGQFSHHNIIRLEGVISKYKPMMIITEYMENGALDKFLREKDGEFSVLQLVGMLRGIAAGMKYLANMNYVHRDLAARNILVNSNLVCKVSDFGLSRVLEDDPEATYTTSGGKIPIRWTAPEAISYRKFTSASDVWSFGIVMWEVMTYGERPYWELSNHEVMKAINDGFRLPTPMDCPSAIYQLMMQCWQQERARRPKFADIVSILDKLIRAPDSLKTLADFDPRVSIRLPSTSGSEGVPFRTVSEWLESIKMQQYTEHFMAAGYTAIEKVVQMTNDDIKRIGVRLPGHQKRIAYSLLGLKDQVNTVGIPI

[4] = Aqueous solubility of compound; assay type: physicochemical; conditions: buffer

SMILES | deltaH (Ephrin type-A receptor 4 [1]) | Kd (Ephrin type-A receptor 4 [2]) | -TdeltaS (Ephrin type-A receptor 4 [3]) | Kd (Ephrin type-A receptor 2) | solubility [4]
N=C(N)NCCCC[C@H](NC(=O)[C@H](Cc1ccc(-c2ccccc2)cc1)NC(=O)[C@H](Cc1c[nH]c2ccc(O)cc12)NC(=O)CCCN)C(=O)NCC(=O)Nc1ncccc1O (H-[GABA][Trp(5-OH)][Bip][hArg]G-X3) | -9.48 kcal/mol | 488 nM | 0.86 kcal/mol | – | –
N=C(N)NCCCC[C@@H](NC(=O)[C@H](Cc1ccc(-c2ccccc2)cc1)NC(=O)[C@H](Cc1c[nH]c2ccccc12)NC(=O)CCCN)C(N)=O (H-[GABA]W[Bip][d(hArg)]-NH2) | -9.26 kcal/mol | 270 nM | 0.3 kcal/mol | – | –
N=C(N)NCCCC[C@H](NC(=O)[C@H](Cc1ccc(-c2ccccc2)cc1)NC(=O)[C@H](Cc1c[nH]c2ccc(O)cc12)NC(=O)[C@H]1CCC[C@H](N)C1)C(=O)NCC(=O)Nc1ccc(CN2CCOCC2)cc1 ({Cyclohexanoyl(1S,3S-3-NH2)}-[Trp(5-OH)][Bip][hArg]G-{NHPh(4-CH2-morpholino)}) | – | 144 nM | – | Not Active | > 50 mM
N=C(N)NCCC[C@H](NC(=O)[C@H](Cc1ccc(-c2ccccc2)cc1)NC(=O)[C@H](Cc1c[nH]c2ccc(O)cc12)NC(=O)CCCN)C(N)=O (H-[GABA][Trp(5-OH)][Bip]R-NH2) | -11 kcal/mol | 459 nM | 2.35 kcal/mol | – | –
N=C(N)NCCCC[C@H](NC(=O)[C@H](Cc1ccc(-c2ccccc2)cc1)NC(=O)[C@H](Cc1c[nH]c2ccc(O)cc12)NC(=O)CCCN)C(=O)NCC(=O)Nc1ccc(CN2CCOCC2)cc1 (H-[GABA][Trp(5-OH)][Bip][hArg]G-{NHPh(4-CH2-morpholino)}) | -10.6 kcal/mol | 106 nM | 1.05 kcal/mol | – | –
N=C(N)NCCCC[C@H](NC(=O)[C@H](Cc1ccc(-c2ccccc2)cc1)NC(=O)[C@H](Cc1c[nH]c2ccc(O)cc12)NC(=O)CCCN)C(=O)NCC(=O)Nc1ccccc1O (H-[GABA][Trp(5-OH)][Bip][hArg]G-X2) | -12 kcal/mol | 191 nM | 2.88 kcal/mol | – | –
N=C(N)NCCCC[C@H](NC(=O)[C@H](Cc1ccc(-c2ccccc2)cc1)NC(=O)[C@H](Cc1c[nH]c2ccccc12)NC(=O)CCCN)C(N)=O (H-[GABA]W[Bip][hArg]-NH2) | -10.7 kcal/mol | 663 nM | 2.27 kcal/mol | – | –
Cc1ccccc1-c1ccc(C[C@H](NC(=O)[C@H](Cc2c[nH]c3ccc(O)cc23)NC(=O)CCCN)C(=O)N[C@@H](CCCCNC(=N)N)C(N)=O)cc1 | -12.1 kcal/mol | 362 nM | 3.29 kcal/mol | – | –
COc1ccccc1-c1ccc(C[C@H](NC(=O)[C@H](Cc2c[nH]c3ccc(O)cc23)NC(=O)[C@H]2CCC[C@H](N)C2)C(=O)N[C@@H](CCCCNC(=N)N)C(=O)NCC(=O)Nc2ccc(CN3CCOCC3)cc2)cc1 ({Cyclohexanoyl(1S,3S-3-NH2)}-[Trp(5-OH)][Phe(4-(2-MeO-Ph))][hArg]G-{NHPh(4-CH2-morpholino)}) | – | 77 nM | – | Not Active | > 50 mM
N=C(N)NCCCC[C@H](NC(=O)[C@H](Cc1ccc(-c2ccccc2)cc1)NC(=O)[C@H](Cc1c[nH]c2ccc(O)cc12)NC(=O)[C@H]1CC[C@H](N)C1)C(N)=O | -8.33 kcal/mol | 1120 nM | 0.21 kcal/mol | – | –
Cc1ccc(-c2ccc(C[C@H](NC(=O)[C@H](Cc3c[nH]c4ccc(O)cc34)NC(=O)CCCN)C(=O)N[C@@H](CCCCNC(=N)N)C(N)=O)cc2)cc1 | -10.2 kcal/mol | 708 nM | 1.77 kcal/mol | – | –
N=C(N)NCCCC[C@H](NC(=O)[C@H](Cc1ccc(-c2ccccc2)cc1)NC(=O)[C@H](Cc1c[nH]c2ncccc12)NC(=O)CCCN)C(N)=O (H-[GABA][Trp(7-aza)][Bip][hArg]-NH2) | -7.27 kcal/mol | 16300 nM | 0.74 kcal/mol | – | –
COc1ccccc1-c1ccc(C[C@H](NC(=O)[C@H](Cc2c[nH]c3ccc(O)cc23)NC(=O)[C@H]2CCC[C@H](N)C2)C(=O)N[C@@H](CCCCNC(=N)N)C(=O)NCC(=O)Nc2ccc(N3CCOCC3)cc2)cc1 ({Cyclohexanoyl(1S,3S-3-NH2)}-[Trp(5-OH)][Phe(4-(2-MeO-Ph))][hArg]G-{NH(4-morpholinophenyl)}) | – | 106 nM | – | Not Active | > 50 mM
N=C(N)NCCCC[C@H](NC(=O)[C@H](Cc1ccc(-c2ccccc2)cc1)NC(=O)[C@H](Cc1c[nH]c2ccc(O)cc12)NC(=O)CCCN)C(=O)NCC(=O)Nc1ccc(N2CCOCC2)cc1 (H-[GABA][Trp(5-OH)][Bip][hArg]G-{NH(4-morpholinophenyl)}) | -11.2 kcal/mol | 94 nM | 1.63 kcal/mol | – | –
N=C(N)NCCCC[C@H](NC(=O)[C@H](Cc1ccc(-c2ccccc2)cc1)NC(=O)[C@H](Cc1c[nH]c2ccc(O)cc12)NC(=O)CCCN)C(=O)NCC(=O)Nc1ccccc1 (H-[GABA][Trp(5-OH)][Bip][hArg]G-NHPh) | -12.3 kcal/mol | 132 nM | 2.87 kcal/mol | – | –
C[C@H](N)C(=O)N[C@@H](Cc1c[nH]c2ccccc12)C(=O)N[C@@H](Cc1ccc(-c2ccccc2)cc1)C(=O)N[C@@H](CCCCNC(=N)N)C(N)=O (HELM PEPTIDE1{A.W.[O=C([C@H](Cc1ccc(-c2ccccc2)cc1)N[*:1])[*:2]].[N=C(N)NCCCC[C@H](N[*:1])C(=O)[*:2]].[am]}$$$$V2.0) | -9.54 kcal/mol | 3020 nM | 2.01 kcal/mol | – | –
N=C(N)NCCCC[C@H](NC(=O)[C@H](Cc1cccc2ccccc12)NC(=O)[C@H](Cc1c[nH]c2ccc(O)cc12)NC(=O)CCCN)C(N)=O (H-[GABA][Trp(5-OH)][1Nal][hArg]-NH2) | -8.22 kcal/mol | – | 1.46 kcal/mol | – | –
COc1ccc2c(C[C@H](NC(=O)CCCN)C(=O)N[C@@H](Cc3ccc(-c4ccccc4)cc3)C(=O)N[C@@H](CCCCNC(=N)N)C(N)=O)c[nH]c2c1 (H-[GABA][Trp(6-OMe)][Bip][hArg]-NH2) | -10.5 kcal/mol | 2460 nM | 2.84 kcal/mol | – | –
COc1cc(CNC(=O)CNC(=O)[C@H](CCCCNC(=N)N)NC(=O)[C@H](Cc2ccc(-c3ccccc3)cc2)NC(=O)[C@H](Cc2c[nH]c3ccc(O)cc23)NC(=O)CCCN)cc(OC)c1 (H-[GABA][Trp(5-OH)][Bip][hArg]G-X4) | -11.3 kcal/mol | 307 nM | 2.39 kcal/mol | – | –
N=C(N)NCCCC[C@H](NC(=O)[C@H](Cc1ccc2ccccc2c1)NC(=O)[C@H](Cc1c[nH]c2ccc(O)cc12)NC(=O)CCCN)C(N)=O (H-[GABA][Trp(5-OH)][2Nal][hArg]-NH2) | -8.49 kcal/mol | 5250 nM | 1.27 kcal/mol | – | –
N=C(N)NCCCC[C@H](NC(=O)[C@H](Cc1ccc(-c2ccccc2)cc1)NC(=O)[C@H](Cc1c[nH]c2ccccc12)NC(=O)CCN)C(N)=O (HELM PEPTIDE1{[bAla].W.[O=C([C@H](Cc1ccc(-c2ccccc2)cc1)N[*:1])[*:2]].[N=C(N)NCCCC[C@H](N[*:1])C(=O)[*:2]].[am]}$$$$V2.0) | -11.5 kcal/mol | 2130 nM | 3.77 kcal/mol | – | –
N=C(N)Nc1ccc(C[C@H](NC(=O)[C@H](Cc2ccc(-c3ccccc3)cc2)NC(=O)[C@H](Cc2c[nH]c3ccccc23)NC(=O)CCCN)C(N)=O)cc1 (H-[GABA]W[Bip][Phe(4-guanidino)]-NH2) | -9.43 kcal/mol | 1160 nM | 1.33 kcal/mol | – | –
N=C(N)NCCCC[C@H](NC(=O)[C@H](Cc1ccc(-c2ccccc2)cc1)NC(=O)[C@H](Cc1c[nH]c2ccc(O)cc12)NC(=O)[C@@H]1CCC[C@@H](N)C1)C(N)=O | -9.39 kcal/mol | 1210 nM | 1.32 kcal/mol | – | –
N=C(N)NCCCC[C@H](NC(=O)[C@H](Cc1ccc(-c2ccc(Cl)cc2)cc1)NC(=O)[C@H](Cc1c[nH]c2ccc(O)cc12)NC(=O)CCCN)C(N)=O | -10.4 kcal/mol | 749 nM | 2 kcal/mol | – | –
N=C(N)NCCCC[C@H](NC(=O)[C@H](Cc1ccc(-c2ccccc2)cc1)NC(=O)[C@H](Cc1c[nH]c2ccc(O)cc12)NC(=O)[C@@H]1CC[C@@H](N)C1)C(N)=O | -9.82 kcal/mol | 740 nM | 1.46 kcal/mol | – | –
NCCCC[C@H](NC(=O)[C@H](Cc1ccc(-c2ccccc2)cc1)NC(=O)[C@H](Cc1c[nH]c2ccc(O)cc12)NC(=O)CCCN)C(N)=O (H-[GABA][Trp(5-OH)][Bip]K-NH2) | -11.2 kcal/mol | 437 nM | 2.54 kcal/mol | – | –
N=C(N)NCCCC[C@H](NC(=O)[C@H](Cc1ccc(-c2ccccc2)cc1)NC(=O)[C@H](Cc1c[nH]c2ccc(O)cc12)NC(=O)CCCN)C(=O)NCC(=O)NCc1ccccc1O (H-[GABA][Trp(5-OH)][Bip][hArg]G-X1) | -12 kcal/mol | 258 nM | 3 kcal/mol | – | –
N=C(N)NCCCC[C@H](NC(=O)[C@H](Cc1ccc(-c2ccccc2)cc1)NC(=O)[C@H](Cc1c[nH]c2ccc(O)cc12)NC(=O)[C@H]1CCC[C@H](N)C1)C(N)=O | -8.1 kcal/mol | 370 nM | -0.67 kcal/mol | – | –
